Laboratory results as given in patent US12251379B2, “Methods of inhibiting formation of alpha synuclein aggregates” (THE REGENTS OF THE UNIVERSITY OF CALIFORNIA, priority 2018, dated 2025).

Columns and labels:
[1] = test system: MPTP-induced neurotoxicity in the mouse SN; conditions: cited from earlier work
[2] = target: sEH (Homo sapiens (Human), UniProt P34913); conditions: cited from earlier work
[3] = pH 7.4; cited from earlier work
[4] = PTZ induced seizure model; Example 52 and FIG. 7 of WO 2015/148954; cited from earlier work
[5] = test system: MPTP-induced neurotoxicity in the striatum and SN; test: MPTP-induced mouse model of PD: immunohistochemistry of DAT and TH; conditions: MPTP 10, 15, or 20 mg/kg ×3 IP, 2-h intervals; 7 days after injection
[6] = test system: ER stress, oxidative stress, sEH and α-synuclein proteins in the mouse striatum; test: Western blot analysis of mouse striatum after MPTP; type: in vivo
Protocol: Western blot analysis of mouse brain samples. Western blot analysis was performed as reported previously (53,56). Mice were killed by cervical dislocation and brains were rapidly removed from the skull, and the striatum of mice were dissected on ice. The tissue samples were homogenized in Laemmli lysis buffer. […] Proteins were transferred onto polyvinylidenedifluoride (PVDF) membranes using a Trans Blot Mini Cell (Bio-Rad). For immunodetection, the blots were blocked with 2% BSA in TBST (TBS+0.1% Tween-20) for 1 h at room temperature (RT), and kept with primary antibodies overnight at 4° C. […] After final three washes with TBST, bands were detected using enhanced chemiluminescence (ECL) plus the Western Blotting Detection system (GE Healthcare Bioscience). Images were captured with a ChemDoc imaging system (Bio-Rad), and the immunoreactive bands were analysis by Image Lab software.

[7] = test system: eicosanoids metabolites in the striatum; test: Oxylipin profiling of striatum from MPTP-treated mice; type: in vivo, mouse; conditions: MPTP 10 mg/kg×3 IP, 7 days after injection; mean +/− SEM
Protocol: Oxylipin profiling. […] Striatum was dissected from brain, and the samples were stored at −80° C. before assay. Measurement of eicosanoids was performed using the previous method (59).

sEH, sequence (P34913 whole entry): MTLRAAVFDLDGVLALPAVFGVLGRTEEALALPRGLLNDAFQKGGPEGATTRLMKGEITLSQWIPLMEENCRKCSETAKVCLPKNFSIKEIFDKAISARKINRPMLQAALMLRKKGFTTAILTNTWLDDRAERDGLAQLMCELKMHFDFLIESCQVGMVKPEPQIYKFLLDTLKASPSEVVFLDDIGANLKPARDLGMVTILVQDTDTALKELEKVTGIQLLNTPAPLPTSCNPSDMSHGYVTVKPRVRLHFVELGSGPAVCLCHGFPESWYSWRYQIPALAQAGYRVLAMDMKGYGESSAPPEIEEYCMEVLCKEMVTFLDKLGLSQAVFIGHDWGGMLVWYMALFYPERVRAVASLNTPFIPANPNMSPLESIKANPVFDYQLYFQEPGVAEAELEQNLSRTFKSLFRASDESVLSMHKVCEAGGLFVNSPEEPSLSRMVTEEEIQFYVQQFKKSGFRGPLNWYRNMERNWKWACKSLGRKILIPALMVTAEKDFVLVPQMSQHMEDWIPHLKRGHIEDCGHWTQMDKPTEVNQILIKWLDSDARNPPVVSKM

Compound: O=C(O)CCCCCCCCCCCNC(=O)NC12CC3CC(CC(C3)C1)C2 [AUDA, 12-(3-Adamantan-1-yl-ureido)dodecanoic acid]
- MPTP-induced neurotoxicity, posttreatment ([1]; posttreatment): did not attenuate
- MPTP-induced loss of TH-positive cells in the mouse SN, pretreatment ([1]; pretreatment): attenuated

Compound: CCCCCCCCCCCCNC(=O)NC12CC3CC(CC(C3)C1)C2 [ADU, N-Adamantyl-N′-dodecyl urea]
- activity on sEH [2]: particularly high activity

Compound: CC[C@H](C)C(=O)N1CCC(NC(=O)Nc2ccc(OC(F)(F)F)c(F)c2)CC1 [compound 26]
- w.s. (water solubility) [3]: 1 µM

Compound: O=C(Nc1ccc(OC(F)(F)F)c(F)c1)NC1CCN(C(=O)C2CCOCC2)CC1 [Compound 29, 1-(3-fluoro-4-(trifluoromethoxy)phenyl)-3-(1-(tetrahydro-2H-pyran-4-carbo-nyl)piperidin-4-yl)urea]
- crossing of the blood-brain barrier [4]: cross the blood-brain barrier

Compound: CN1CC=C(c2ccccc2)CC1 [MPTP, 1-methyl-4-phenyl-1,2,3,6-tetrahydropyridine]
- DAT and TH density in the striatum and TH-positive cell number in the SN compared with control mice [5]: significant reductions
- phosphorylated α-synuclein/α-synuclein ratio in the striatum compared with control mice ([6]; MPTP 10 mg/kg×3): significant increase
- expression of GSH, iNOS, and SOD in the striatum ([6]; MPTP 10 mg/kg×3, 7 days after injection): alterations
- sEH protein in the striatum compared with control mice ([6]; MPTP 10 mg/kg×3, three or 7 days after injections): significant increase
- Level of 5(6)-EpETrE in the striatum [7]: 544.908 ± 19.111
- Level of 6-keto-PGF1a in the striatum [7]: 20.015 ± 1.352
- Level of 8(9)-EpETrE in the striatum [7]: 19.048 ± 1.310
- Level of 9(10)-EpOME in the striatum [7]: 6.641 ± 0.431
- Level of 9,10,13-TriHOME in the striatum [7]: 33.635 ± 2.452
- Level of 9,10-DiHOME in the striatum [7]: 1.346 ± 0.158
- Level of 9,12,13-TriHOME in the striatum [7]: 59.487 ± 4.168
- Level of 9-HODE in the striatum [7]: 41.360 ± 3.045
- Level of 9-oxo-ODE in the striatum [7]: 46.977 ± 5.160
- Level of 10(11)-EpDPE in the striatum [7]: 9.530 ± 0.829
- Level of 11(12)-EpETrE in the striatum [7]: 61.583 ± 4.605
- Level of 11-HETE in the striatum [7]: 114.056 ± 5.188
- Level of 12(13)-EpOME in the striatum [7]: 7.073 ± 0.689
- Level of 12,13-DIHOME in the striatum [7]: 8.348 ± 1.710
- Level of 12-HETE in the striatum [7]: 136.621 ± 26.845
- Level of 13-HODE in the striatum [7]: 58.399 ± 5.240
- Level of 14(15)-EpETrE in the striatum [7]: 77.976 ± 11.479
- Level of 15,16-DiHODE in the striatum [7]: 3.667 ± 0.609
- Level of 15-HETE in the striatum [7]: 129.113 ± 6.703
- Level of 19,20-DiHDPE in the striatum [7]: 5.310 ± 0.523
- Level of EKODE in the striatum [7]: 23.007 ± 4.170
- Level of PGD2 in the striatum [7]: 127.452 ± 4.968
- Level of PGE2 in the striatum [7]: 13.830 ± 1.069
- Level of PGF2a in the striatum [7]: 160.704 ± 7.212
- Level of TXB2 in the striatum [7]: 98.406 ± 4.740
